Laboratory results as given in publication PMC13147314 (The Febs Journal, 2025).

Legend:
PsGK = biological target: T1, PsGK (Pseudoalteromonas sp. AS-131, UniProt H7CHS4, C325S); assay: G6PD-coupled NADPH assay at […] nm, Lineweaver-Burk; type: biochemical; conditions: 1, 25 and 40 °C
T1 construct: gene glk; full length, cloned in pET-16b, expressed in E. coli BL21 (DE3), purified by ammonium sulfate and anion exchange (no tag mentioned); about 35 kDa subunit, 79 kDa homodimer by gel filtration

EcGK = biological target: T2, EcGK (Escherichia coli, UniProt P0A6V8); assay: G6PD-coupled NADPH assay at […] nm, Lineweaver-Burk; type: biochemical; conditions: 25 °C, pH 7.6, 20 mM Tris-HCl, 10 mM MgCl2, co-substrate glucose, 1 mM DTT; also measured at 1 and 40 °C
T2 construct: gene glk; full length, cloned in pET-16b, expressed in E. coli BL21 (DE3), purified by ammonium sulfate and anion exchange (no tag mentioned); about 35 kDa subunit, 59 kDa homodimer by gel filtration
T2 sequence (P0A6V8 2-321): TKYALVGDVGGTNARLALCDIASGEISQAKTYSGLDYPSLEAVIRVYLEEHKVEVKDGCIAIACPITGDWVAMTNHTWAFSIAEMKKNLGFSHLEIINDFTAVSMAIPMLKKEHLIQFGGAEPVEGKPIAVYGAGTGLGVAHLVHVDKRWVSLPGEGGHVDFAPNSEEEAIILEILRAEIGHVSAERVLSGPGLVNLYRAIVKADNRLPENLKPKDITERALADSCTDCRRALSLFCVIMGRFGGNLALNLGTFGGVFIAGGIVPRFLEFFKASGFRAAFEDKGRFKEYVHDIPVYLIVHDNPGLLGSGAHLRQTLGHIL

purified protein = substrate: Nc1ncnc2c1ncn2[C@@H]1O[C@H](COP(=O)(O)OP(=O)(O)OP(=O)(O)O)[C@@H](O)[C@H]1O; assay: purified protein; type: biochemical, Pseudoalteromonas sp. AS-131; conditions: 25 °C, pH 7.6, 20 mM Tris-HCl, 10 mM MgCl2, co-substrate glucose, 1 mM DTT, also measured at 1 and 40 °C
[1] = biological target: the molecule itself; assay: SEC; gel filtration on HiLoad 16/60 Superdex 200 prep grade; molecular weights estimated and compared with about 35 kDa by SDS/PAGE; monomers to dimer

T1 sequence (H7CHS4 entry or part of it C325S): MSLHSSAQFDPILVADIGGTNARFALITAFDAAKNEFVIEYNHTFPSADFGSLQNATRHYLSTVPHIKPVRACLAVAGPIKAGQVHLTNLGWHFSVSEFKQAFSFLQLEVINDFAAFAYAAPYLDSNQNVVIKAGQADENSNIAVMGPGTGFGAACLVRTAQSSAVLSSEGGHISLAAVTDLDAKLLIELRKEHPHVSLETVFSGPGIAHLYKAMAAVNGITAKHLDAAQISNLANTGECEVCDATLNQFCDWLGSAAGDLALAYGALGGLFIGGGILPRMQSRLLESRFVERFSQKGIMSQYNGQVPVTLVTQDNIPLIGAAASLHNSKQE

With `Nc1ncnc2c1ncn2[C@@H]1O[C@H](COP(=O)(O)OP(=O)(O)OP(=O)(O)O)[C@@H](O)[C@H]1O` [ATP] the K m (PsGK; pH 7.6, 10 mM MgCl2, co-substrate glucose) was “the catalytic efficiency (k cat/K m) of C325S exceeded that of WT” and the K m (EcGK) was 1110 ± 80 µM.

For `OC[C@H]1OC(O)[C@H](O)[C@@H](O)[C@@H]1O` (stereo partly drawn) [glucose], the K m (PsGK; pH 7.6, 10 mM MgCl2, co-substrate ATP) was “the catalytic efficiency (k cat/K m) of C325S exceeded that of WT”.

B1: glucokinase from Pseudoalteromonas sp. AS-131 wild-type (enzyme, UniProt H7CHS4 1-332, looked up)
chain: MSLHSSAQFDPILVADIGGTNARFALITAFDAAKNEFVIEYNHTFPSADFGSLQNATRHYLSTVPHIKPVRACLAVAGPIKAGQVHLTNLGWHFSVSEFKQAFSFLQLEVINDFAAFAYAAPYLDSNQNVVIKAGQADENSNIAVMGPGTGFGAACLVRTAQSSAVLSSEGGHISLAAVTDLDAKLLIELRKEHPHVSLETVFSGPGIAHLYKAMAAVNGITAKHLDAAQISNLANTGECEVCDATLNQFCDWLGSAAGDLALAYGALGGLFIGGGILPRMQSRLLESRFVERFSQKGIMSQYNGQVPVTLVTQDNIPLIGAAACLHNSKQE
notes: glucokinase (PsGK) of Pseudoalteromonas sp; AS-131, UniProt H7CHS4; amplified with primers that carry the start and the stop codon and cloned into pET-16b; also called PsGK; PsGK WT; source: E. coli BL21 (DE3), purified (ammonium sulfate fractionation, anion exchange HiTrap Q HP)
B1 was tested, and the Km (purified protein) was 1550 ± 170 µM and the “stoichiometry N” value [1] was 2.

B2: glucokinase from Escherichia coli wild-type (enzyme, Escherichia coli K-12)
chain: T2 sequence (P0A6V8 2-321)
notes: glucokinase (EcGK) of Escherichia coli K-12, encoded by glk, UniProt P0A6V8; the gene was amplified from genomic DNA and cloned into pET-16b; also called EcGK; EcGK WT; source: E. coli BL21 (DE3), purified (ammonium sulfate fractionation, anion exchange HiTrap Q HP)
For B2, the “stoichiometry N” value [1] was 2.
